Laboratory results taken from patent publication US9440957B2, “Compounds and compositions for modulating EGFR Activity” (Novartis AG, priority 2012, dated 2016).
Like-named read-outs stand apart in the source and are kept apart here.

Tests used:
EGFR(L858R/T790M) = target: T1, EGFR(L858R/T790M) (Homo sapiens, UniProt P00533, L858R/T790M); experiment: EGFR biochemical assay (HTRF), IC50 determinations
T1 construct: purchased from Carna (GST-a.a. 669-1210)
Summary of the method: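 Two formats were run: compound preincubated at room temperature with enzyme and biotin-TK peptide before ATP starts the reaction, or no preincubation with enzyme added last. Reactions ran 60 min at room temperature and were stopped with EDTA. Phosphopeptide was read by HTRF (PT66K/SAXL, 1 h).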

[1] = target: human EGFR WT (NIH/3T3 cells, EGF-induced) (Homo sapiens, UniProt P00533); experiment: EGFR target modulation in engineered NIH/3T3 cell lines (phospho-EGFR Y1068 AlphaLISA), EGFR WT; format: cell-based; conditions: engineered NIH/3T3 cells, read-out: NIH3T3 IC50 (μM) EGFR (WT)
human EGFR WT (NIH/3T3 cells, EGF-induced), sequence (P00533 25-1210): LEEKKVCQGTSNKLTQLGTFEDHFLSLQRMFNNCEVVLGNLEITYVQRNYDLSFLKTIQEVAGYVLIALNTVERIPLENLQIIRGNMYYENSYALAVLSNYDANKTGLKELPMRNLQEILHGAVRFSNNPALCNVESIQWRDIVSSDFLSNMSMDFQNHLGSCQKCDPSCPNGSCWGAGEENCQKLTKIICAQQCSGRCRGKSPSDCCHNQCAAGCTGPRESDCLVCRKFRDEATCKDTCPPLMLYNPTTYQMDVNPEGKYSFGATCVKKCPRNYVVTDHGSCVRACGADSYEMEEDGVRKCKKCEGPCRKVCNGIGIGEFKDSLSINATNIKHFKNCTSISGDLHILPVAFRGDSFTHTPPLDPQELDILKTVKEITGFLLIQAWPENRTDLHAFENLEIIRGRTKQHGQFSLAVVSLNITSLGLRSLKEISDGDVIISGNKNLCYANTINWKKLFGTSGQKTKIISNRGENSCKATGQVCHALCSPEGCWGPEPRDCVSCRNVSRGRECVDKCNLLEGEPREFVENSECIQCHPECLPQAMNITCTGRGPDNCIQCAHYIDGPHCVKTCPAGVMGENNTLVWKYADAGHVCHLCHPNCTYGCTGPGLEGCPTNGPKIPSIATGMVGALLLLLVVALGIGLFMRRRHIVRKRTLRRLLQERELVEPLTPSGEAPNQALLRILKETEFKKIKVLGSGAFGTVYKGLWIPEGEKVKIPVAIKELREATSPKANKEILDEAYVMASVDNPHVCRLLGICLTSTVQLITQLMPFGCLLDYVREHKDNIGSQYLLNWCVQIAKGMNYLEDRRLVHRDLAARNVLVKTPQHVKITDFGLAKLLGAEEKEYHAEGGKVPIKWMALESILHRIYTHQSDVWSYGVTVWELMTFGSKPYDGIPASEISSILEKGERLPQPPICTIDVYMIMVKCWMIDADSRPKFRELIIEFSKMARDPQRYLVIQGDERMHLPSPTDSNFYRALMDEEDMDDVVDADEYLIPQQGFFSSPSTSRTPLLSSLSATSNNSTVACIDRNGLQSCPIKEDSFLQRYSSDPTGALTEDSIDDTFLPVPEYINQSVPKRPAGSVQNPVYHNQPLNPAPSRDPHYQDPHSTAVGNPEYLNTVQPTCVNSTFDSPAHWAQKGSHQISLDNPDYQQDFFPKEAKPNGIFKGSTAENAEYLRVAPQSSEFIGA
Summary of the method: (§1)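 Engineered NIH/3T3 cells were plated overnight, then exposed to a 12-point 1:3 compound series (from a 10 μM stock) for 3 hours at 37 °C. WT-expressing cells alone were stimulated with 50 ng/ml EGF for 5 minutes before lysis. IC50s came from non-linear fits of AlphaLISA signal.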

[2] = target: human EGFR L858R (NIH/3T3 cells) (Homo sapiens, UniProt P00533, L858R); experiment: EGFR target modulation in engineered NIH/3T3 cell lines (phospho-EGFR Y1068 AlphaLISA), EGFR L858R; format: cell-based; conditions: engineered NIH/3T3 cells, read-out: NIH3T3 IC50 (μM) EGFR (L858R)
Summary of the method: as §1

[3] = target: human EGFR L858R/T790M (NIH/3T3 cells) (Homo sapiens, UniProt P00533, L858R/T790M); experiment: EGFR target modulation in engineered NIH/3T3 cell lines (phospho-EGFR Y1068 AlphaLISA), EGFR L858R/T790M; format: cell-based; conditions: engineered NIH/3T3 cells, read-out: NIH3T3 IC50 (μM) EGFR (L858R/T790M)
human EGFR L858R/T790M (NIH/3T3 cells), sequence (P00533 25-1210 T790M/L858R): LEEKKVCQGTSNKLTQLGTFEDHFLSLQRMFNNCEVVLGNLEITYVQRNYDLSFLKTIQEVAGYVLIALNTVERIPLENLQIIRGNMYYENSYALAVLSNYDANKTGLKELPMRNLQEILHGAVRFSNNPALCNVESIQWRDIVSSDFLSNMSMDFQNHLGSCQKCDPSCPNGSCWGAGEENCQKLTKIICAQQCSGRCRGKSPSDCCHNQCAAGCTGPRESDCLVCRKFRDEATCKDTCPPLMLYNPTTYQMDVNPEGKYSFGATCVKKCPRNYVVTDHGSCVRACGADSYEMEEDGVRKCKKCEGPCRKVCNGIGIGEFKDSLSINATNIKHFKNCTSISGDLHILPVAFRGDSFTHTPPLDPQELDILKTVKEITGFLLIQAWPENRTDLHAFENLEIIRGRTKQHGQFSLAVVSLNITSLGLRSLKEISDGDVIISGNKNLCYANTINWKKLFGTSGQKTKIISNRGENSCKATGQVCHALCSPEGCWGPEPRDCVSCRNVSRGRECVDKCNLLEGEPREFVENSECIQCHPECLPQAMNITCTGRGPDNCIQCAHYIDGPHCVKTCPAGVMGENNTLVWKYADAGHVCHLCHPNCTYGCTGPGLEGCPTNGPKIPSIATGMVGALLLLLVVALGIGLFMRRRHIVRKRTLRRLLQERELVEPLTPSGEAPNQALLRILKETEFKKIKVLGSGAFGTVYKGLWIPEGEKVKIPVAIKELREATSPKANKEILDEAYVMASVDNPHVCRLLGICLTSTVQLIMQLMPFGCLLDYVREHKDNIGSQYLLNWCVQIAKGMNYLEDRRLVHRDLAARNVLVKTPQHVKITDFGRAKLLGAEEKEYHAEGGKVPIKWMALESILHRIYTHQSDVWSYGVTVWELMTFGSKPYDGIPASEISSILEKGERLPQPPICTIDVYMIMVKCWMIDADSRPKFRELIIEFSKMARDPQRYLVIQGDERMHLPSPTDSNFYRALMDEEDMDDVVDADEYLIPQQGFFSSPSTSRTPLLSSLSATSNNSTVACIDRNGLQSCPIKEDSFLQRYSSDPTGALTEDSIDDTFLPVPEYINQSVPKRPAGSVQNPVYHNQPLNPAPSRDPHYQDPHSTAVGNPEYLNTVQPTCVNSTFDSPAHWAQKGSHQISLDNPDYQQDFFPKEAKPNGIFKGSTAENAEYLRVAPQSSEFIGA
Summary of the method: as §1

H1975 (EGFR L858/T790M) = H1975 (EGFR L858/T790M) (Homo sapiens, UniProt P00533, L858R/T790M); experiment: EGFR target modulation in H1975 cell line (phospho-EGFR Y1173 ELISA); format: cell-based
H1975 (EGFR L858/T790M), sequence (P00533 25-1210 T790M/L858R): as above
Summary of the method: (§2)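 Readout: luminescent pY1173-EGFR sandwich ELISA on cell lysates. Treatment: compound, 3 h, 37 °C.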

H3255 (EGFR L858R) = H3255 (EGFR L858R) (Homo sapiens, UniProt P00533, L858R); experiment: EGFR target modulation in H3255 cell line (phospho-EGFR Y1173 ELISA); format: cell-based
Summary of the method: as §2

HEKn (EGFR WT) = HEKn (EGFR WT) (Homo sapiens, UniProt P00533); experiment: EGFR target modulation in HEKn (EGFR-WT) cell line (phospho-EGFR Y1173 ELISA); format: cell-based; conditions: value outside parentheses
HEKn (EGFR WT), sequence (P00533 25-1210): as the sequence (P00533 25-1210) above
Summary of the method: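 Read-out was Y1173 phosphorylation, measured by chemiluminescent ELISA with anti-EGFR capture of lysates. HEKn keratinocytes (wild-type EGFR) were treated with compound for 3 h.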

[4] = EGFR (L858R/T790M) with 90 min pre-incubation, read-out: IC50 (μM) Column B
[5] = EGFR (L858R/T790M) with no pre-incubation, read-out: IC50 (μM) Column A

| SMILES | IC50 (EGFR(L858R/T790M); [4]) [µM] | IC50 (EGFR(L858R/T790M); [5]) [µM] | IC50 [1] [µM] | IC50 [2] [µM] | IC50 [3] [µM] | IC50 (H1975 (EGFR L858/T790M)) [nM] | IC50 (H3255 (EGFR L858R)) [nM] | IC50 (HEKn (EGFR WT)) [nM] |
| --- | --- | --- | --- | --- | --- | --- | --- | --- |
| Cc1cc(C(=O)Nc2nc3cccc(C)c3n2[C@@H]2CCCN(C(=O)/C=C/CN(C)C)C2)ccn1 [Example 17-4] | 0.006 | 0.135 | 1.4 | 0.062 | 0.058 | 105 | 156 | > 10000 |
| COc1cncc(C(=O)Nc2nc3cccc(C)c3n2[C@@H]2CCCCN(C(=O)/C=C/CN(C)C)C2)c1 [Example 17-79] | < 0.001 | 0.005 | 0.062 | 0.005 | 0.002 | 2 | 7 | 176 |
| Cc1cccc2nc(NC(=O)c3ccnc(-c4ccccc4)c3)n([C@@H]3CCCCN(C(=O)/C=C/CN(C)C)C3)c12 [Example 17-76] | < 0.001 | < 0.001 | 0.004 | < 0.001 | < 0.001 | < 1 | 1 | 14 |
| Cc1cccc2nc(NC(=O)c3ccnc(F)c3)n(C3CCCCN(C(=O)/C=C/CN(C)C)C3)c12 (centres unmarked) [Example 17-58] | < 0.001 | 0.005 | 0.026 | 0.002 | 0.002 | 3 | 9 | 154 |
| Cc1cc(C(=O)Nc2nc3cccc(C)c3n2[C@@H]2CCCCN(C(=O)/C=C/CN(C)C)C2)cnn1 [Example 17-82] | < 0.001 | 0.007 | 0.187 | 0.007 | 0.007 | 10 | 29 | 370 |
| C=CC(=O)N1CCCC[C@@H](n2c(NC(=O)c3ccccc3)nc3cccc(CN(C)C)c32)C1 [Example 17-129] | < 0.001 | 0.002 | 0.045 | 0.002 | 0.002 | 1 | 4 | 28 |
| Cc1cccc2nc(NC(=O)c3ccc(F)cc3F)n(C3CCCCN(C(=O)/C=C/CN(C)C)C3)c12 (centres unmarked) [Example 17-28] | < 0.001 | 0.014 | 0.283 | 0.004 | 0.01 | 24 | 81 | 370 |
| COc1ccc2nc(NC(=O)c3ccnnc3)n([C@@H]3CCCCN(C(=O)/C=C/CN(C)C)C3)c2c1Cl [Example 17-2] | 0.002 | 0.018 | 0.38 | 0.018 | 0.015 | 76 | 170 | 2340 |
| C=CC(=O)N1CCCC[C@@H](n2c(NC(=O)c3ccnnc3)nc3cccc(C)c32)C1 [Example 17-94] | < 0.001 | 0.002 | 0.031 | 0.001 | < 0.001 | 1 | 2 | 45 |
| Cc1cc(C(=O)Nc2nc3cccc(C)c3n2[C@@H]2CCCCN(C(=O)/C=C/CN(C)C)C2)cc(C)n1 [Example 17-72] | < 0.001 | 0.004 | 0.063 | 0.004 | 0.001 | 3 | 12 | 220 |
| Cc1noc(-c2cccc3nc(NC(=O)c4ccccc4)n(C4COCCN(C(=O)/C=C/CN(C)C)C4)c23)n1 (centres unmarked) [Example 17-142] | 0.01 | 0.32 | 5.2 | 0.34 | 0.09 | 105 | 640 | > 10000 |
| Cc1cccc2nc(NC(=O)c3ccc(Cl)nc3)n([C@@H]3CCCCN(C(=O)/C=C/CN(C)C)C3)c12 [Example 17-77] | < 0.001 | 0.003 | 0.008 | 0.001 | 0.001 | 2 | 1 | 24 |
| Cc1cccc2nc(NC(=O)c3cccc(S(C)(=O)=O)c3)n(C3CCCCN(C(=O)/C=C/CN(C)C)C3)c12 (centres unmarked) [Example 17-52] | < 0.001 | 0.002 | 0.103 | 0.003 | < 0.001 | 2 | 5 | 320 |
| COc1cc(C(=O)Nc2nc3cccc(C)c3n2[C@@H]2CCCCN(C(=O)/C=C/CN(C)C)C2)ccn1 [Example 17-71] | < 0.001 | 0.002 | 0.029 | 0.002 | 0.002 | 2 | 3 | 134 |
| Cc1cccc2nc(NC(=O)c3cccc(C#N)c3)n(C3CCCCN(C(=O)/C=C/CN(C)C)C3)c12 (centres unmarked) [Example 17-42] | < 0.001 | < 0.002 | 0.053 | 0.002 | 0.002 | 2 | 13 | 206 |
| Cc1cccc2nc(NC(=O)c3ccncc3)n(C3CCCCN(C(=O)/C=C/CN(C)C)C3)c12 (centres unmarked) [Example 17-35] | < 0.001 | 0.006 | 0.14 | 0.005 | 0.005 | 4 | 5 | 285 |
| Cc1cccc2nc(NC(=O)c3ccc(F)cc3)n(C3CCCCN(C(=O)/C=C/CN(C)C)C3)c12 (centres unmarked) [Example 17-26] | < 0.001 | 0.005 | 0.139 | 0.003 | 0.005 | 5 | 15 | 190 |
| Cc1nccc(C(=O)Nc2nc3cccc(C)c3n2C2CCCCN(C(=O)/C=C/CN(C)C)C2)n1 (centres unmarked) [Example 17-54] | 0.005 | 0.09 | 0.56 | 0.022 | 0.041 | 78 | 81 | 4900 |
| Cc1cccc2nc(NC(=O)c3ccnnc3)n([C@@H]3CCCCN(C(=O)C#CCN(C)C)C3)c12 [Example 17-87] | < 0.001 | < 0.001 | 0.013 | < 0.001 | < 0.001 | 2 | < 1 | 37 |
